This is an account of results in publication PMC10376326, “Novel Acylselenourea Derivatives: Dual Molecules with Anticancer and Radical Scavenging Activity” (Antioxidants, 2023).

Assay [1] relates to DU-145 (prostate) cancer cell line. The assay can be described thus: MTT cell viability assay, DU-145. In kind it is cell-based, human. The note with it: for activity at 10 µM / activity at 50 µM: Homo sapiens, DU-145, 48 h; for activity at 10 µM: read-out: Cell growth %, DU-145, 10 µM, 48 h, MTT; for activity at 50 µM: read-out: Cell growth %, DU-145, 50 µM, 48 h, MTT. On the procedure:
(§1) Cell lines were purchased from the American Type Culture Collection (ATCC). Cell lines MDA-MB-231, HTB-54, DU-145, and BEAS-2B were cultured in RPMI 1640 medium (Gibco, Thermo Fisher Scientific, Gaithersburg, MD, USA) supplemented with 10% fetal bovine serum (FBS; Gibco), 100 units/mL penicillin, and […] streptomycin (Gibco). HT-29 cell line was grown in McCoy’s 5A (Gibco), 10% FBS, 100 units/mL penicillin, and 100 μg/mL streptomycin. Cells were maintained at 37 °C and 5% CO2. The culture medium was changed every three days.
(§2) The cell viability of each compound was measured by MTT colorimetric assay. Each compound was dissolved in DMSO at a concentration of 0.01 M. Each compound was tested at two different concentrations (10 and 50 µM) in MDA-MB-231 (breast), HTB-54 (lung), DU-145 (prostate), and HT-29 (colon) human cancer cell lines. Serial dilutions were prepared with supplemented culture medium. […] IC50 and selectivity indexes (SI) were determined.
(§3) Briefly, 1 × 10^4 tumor cells per well were grown in 96-well plates for 24 h. Then, these cells were incubated for 48 h with either DMSO (control) or a different concentration of each of the tested compounds. The cell viability was determined by adding 20 μL of MTT two hours and a half before the termination point. After this time, the culture medium was removed. The resulting formazan crystals were dissolved in 50 μL of DMSO, and the absorbance was measured at 570 nm. Results are expressed as % cell growth. The data were obtained from at least three independent experiments performed in quadruplicate.
Background: Tetrazolium dyes change colour on reduction, which living cells bring about.

Assay [2] relates to HTB-54 (lung) cancer cell line. The assay can be described thus: MTT cell viability assay, HTB-54. The note with it: Homo sapiens, HTB-54, 48 h; for activity at 10 µM: read-out: Cell growth %, HTB-54, 10 µM, 48 h, MTT; for activity at 50 µM: read-out: Cell growth %, HTB-54, 50 µM, 48 h, MTT. It counts as cell-based, human. On the procedure: as §1, §2, §3
Assay [3] deals with MDA-MB-231 (breast) cancer cell line. The assay can be described thus: MTT cell viability assay, MDA-MB-231. It counts as cell-based, human. The settings on record: Homo sapiens, MDA-MB-231, 48 h; for activity at 10 µM: read-out: Cell growth %, MDA-MB-231, 10 µM, 48 h, MTT; for activity at 50 µM: read-out: Cell growth %, MDA-MB-231, 50 µM, 48 h, MTT. On the procedure:
as §1, §2, §3

In assay [4] the test system is HT-29 (colon) cancer cell line. The assay can be described thus: MTT cell viability assay, HT-29. In kind it is cell-based. The note with it: Homo sapiens, HT-29, 48 h, read-out: Cell growth %; for activity at 10 µM: HT-29, 10 µM; for activity at 50 µM: HT-29, 50 µM. On the procedure: as §1, §2, §3
A short description of assay [5]: DPPH radical scavenging assay. It counts as biochemical. The note with it: for DPPH Inhibitory%: acylselenourea analogs. On the procedure: Different methods are available to quantify the antioxidant capacity of natural or novel molecules. Notable among these are the ABTS^•+ and DPPH^• methods, which measure the quenching efficiency in vitro for known concentrations of preformed radicals. In this work, the DPPH^• colorimetric assay was carried out. Measurements were recorded on a BioTeck PowerWave XS spectrophotometer (BioTeck Instruments, Winooski, VT, USA) and data were collected using KCJunior v.1.41. software (BioTeck Instruments, Winooski, VT, USA). Compounds with potent activity were selected to further determine their protective effect against ROS-induced cell death caused by H2O2.
DPPH colorimetric assay was performed to determine the in vitro radical scavenging activity of the acylselenourea derivatives. DPPH assay was performed as described by Svinyarov. For each acylselenourea, a stock solution of 1 mg/mL in dimethyl sulfoxide (DMSO) was made, and these solutions were used to prepare the different concentrations employed in the assay. The compounds were tested at two different concentrations (0.003 and 0.03 mg/mL). Intermediate solutions were prepared in methanol and a volume of 100 µL of each was added to each well of the plate. Then, 100 µL of DPPH^• (previously prepared at a concentration of 0.04 mg/mL in methanol and preserved in the dark) was added to the previous methanolic acylselenourea solutions. The discoloration of the purple radical to the yellow reduced form was followed at 517 nm at different time points (0, 5, 15, 30, 60, 90, and 120 min). Ascorbic acid and trolox were used as positive controls. All measurements were carried out in triplicate. Results are expressed as the percentage of the radicals scavenged, calculated using the following formula: (1) % DPPH radical scavenging=Acontrol - Asample/Acontrol × 100 where Acontrol refers to the absorbance of the negative control and Asample refers to the absorbance of the tested compounds. Results are expressed as percentage of DPPH radical scavenging ± SD.
(In general: DPPH is a stable violet radical that fades when it is reduced.)

On the set-up of assay [6]: method as in PMID 36671001. The settings on record: selenoester analogs, 0.03 mg/mL, 90 min; cited from earlier work.

Where two headings read alike, the source gives them in different places.

As usually defined, the inhibition is the change of the read-out against control, counted positive when it falls. Consider `C=CCNC(=[Se])NC(=O)/C=C/c1ccccc1` [Compound 6.II, N-(allylcarbamoselenoyl)cinnamamide], for which the cell growth % in assay [1] (DU-145, 10 µM, 48 h, MTT) is on record as 57.30%. The activity at 10 µM in assay [1] came out at 57.3 ± 3.6%; in assay [2] it was 68.7 ± 8.2%; in assay [3], 51.8 ± 6.8%; in assay [4] it was 94.7 ± 5.3%. Moreover, the activity at 50 µM in assay [1] is 14.6 ± 4.5%; in assay [2], 44.1 ± 10.6%; in assay [3], 30.5 ± 7.1%; in assay [4] it was 56.1 ± 11%. In addition, the inhibition came out at 0% in assay [5] (0.003 mg/mL, 0 min); 0% in assay [5] (0.003 mg/mL, 5 min); 0% in assay [5] (0.003 mg/mL, 15 min); 0% in assay [5] (0.003 mg/mL, 30 min); 0% in assay [5] (0.003 mg/mL, 60 min); 0.5 ± 2.3% in assay [5] (0.003 mg/mL, 90 min). Besides, the inhibition in assay [5] (0.003 mg/mL, 120 min) was 1.1 ± 2.3%; in assay [5] (0.03 mg/mL, 0 min) it was 0%; in assay [5] (0.03 mg/mL, 5 min), 1 ± 1.7%; in assay [5] (0.03 mg/mL, 15 min), 4.6 ± 1.3%; in assay [5] (0.03 mg/mL, 30 min) it was 9.8 ± 1.1%; in assay [5] (0.03 mg/mL, 60 min) it was 18.8 ± 0.9%. In addition, in assay [5] (0.03 mg/mL, 120 min), the inhibition turned out to be 34.2 ± 0.7%. Moreover, the “DPPH Inhibitory%” value in assay [5] (0.03 mg/mL, 90 min) is 26.7 ± 0.6%.
`C=CC[Se]C(=O)c1ccco1` [C00001 2-furyl]: the “DPPH Inhibitory%” value in assay [6] is 4.6 ± 7.5%.
For `C=CC[Se]C(=O)C=Cc1ccccc1` [C00001 2-phenylvinyl], the “DPPH Inhibitory%” value in assay [6] was 3.6 ± 5.3%.
`C=CCNC(=[Se])NC(=O)c1ccc2c(c1)OCO2` [Compound 8.II, N-(allylcarbamoselenoyl)benzo[d][1,3]dioxole-5-carboxamide]: the activity at 10 µM in assay [1] came to 88.6 ± 10.1%; in assay [2], 51.9 ± 15%; in assay [3], 80.7 ± 6.4%; in assay [4], 83.5 ± 16.4%. Further, the activity at 50 µM in assay [1] is 10.3 ± 4.2%; in assay [2], 20 ± 6.6%; in assay [3], 15.5 ± 7.6%; in assay [4], 26.6 ± 3.8%. The inhibition in assay [5] (0.003 mg/mL, 0 min) was determined as 1.2 ± 1.4%; in assay [5] (0.003 mg/mL, 5 min), 2.8 ± 1.3%; in assay [5] (0.003 mg/mL, 15 min) it was 5 ± 1.2%; in assay [5] (0.003 mg/mL, 30 min) it was 7.1 ± 1.1%; in assay [5] (0.003 mg/mL, 60 min), 9.7 ± 1.1%; in assay [5] (0.003 mg/mL, 90 min), 10.9 ± 1.2%. In addition, the inhibition in assay [5] (0.003 mg/mL, 120 min) was found to be 11.7 ± 1.2%; in assay [5] (0.03 mg/mL, 0 min) it was 17.6 ± 4.6%; in assay [5] (0.03 mg/mL, 5 min), 39 ± 3%; in assay [5] (0.03 mg/mL, 15 min), 55.5 ± 2.1%; in assay [5] (0.03 mg/mL, 30 min), 68 ± 1.7%; in assay [5] (0.03 mg/mL, 60 min), 81.4 ± 1.3%. In assay [5] (0.03 mg/mL, 120 min), this molecule returned an inhibition of 93.7 ± 1.4%. Also, the “DPPH Inhibitory%” value in assay [5] (0.03 mg/mL, 90 min) is listed as 88.2 ± 1.3%.
Regarding `C=CC[Se]C(=O)c1ccc2c(c1)OCO2` [C00001 5-benzo[d][1, 3]dioxyl], the “DPPH Inhibitory%” value in assay [6] is reported as 0.0 ± 2.3%.
On to `C#CC[Se]C(=O)c1ccco1` [C00003 2-furyl], for which the “DPPH Inhibitory%” value in assay [6] is 5.4 ± 2.3%.
On to `C=CC[Se]C(=O)c1cccs1` [C00001 2-thiophenyl], for which the “DPPH Inhibitory%” value in assay [6] is reported as 7.8 ± 10.4%.
